Where “and” joins values, the source holds several entries; their conditions need not be identical. Equal values may be shown once. Where a name gives a salt, the structure may show the parent alone. Read-outs that look alike come from different tables or passages of the source.
Test system: TNFα secretion in white blood cells from human buffy coat stimulated with phorbol 12-myristate 13-acetate and ionomycin
Assay: TNFα secretion assay
Conditions: for inhibition at 0.2 µM: read-out: percent inhibition of TNFα secretion, Amoxapine 0.2 μM; for inhibition at 0.4 µM: read-out: percent inhibition of TNFα secretion, Amoxapine 0.4 μM; for inhibition at 0.8 µM: read-out: percent inhibition of TNFα secretion, Amoxapine 0.8 μM; for inhibition at 13 µM: read-out: percent inhibition of TNFα secretion, Amoxapine 13 μM; for inhibition at 25 µM: read-out: percent inhibition of TNFα secretion, Amoxapine 25 μM; for inhibition at 0.3 µM: read-out: % inhibition of TNFα secretion, Dipyridamole 0.3 μM; for inhibition at 19 µM: read-out: % inhibition of TNFα secretion, Dipyridamole 19 μM
[1] = Homo sapiens, Bromodiphenhydramine HCl μM: 0/0.21/0.43/0.85/1.7/3.4/6.8/14/27
[2] = Homo sapiens, Cyproheptadine HCl μM: 0/0.24/0.48/0.96/1.9/3.9/7.7/15/31
[3] = Homo sapiens, Loratadine 0/0.2/0.41/0.82/1.6/3.3/6.5/13/26 μM
[4] = Homo sapiens, Thiethylperazine Maleate μM: 0/0.2/0.39/0.78/1.6/3.1/6.3/13/25
[5] = Homo sapiens, Bromodiphenhydramine HCl μM r5-r13: 0,0.21,0.43,0.85,1.7,3.4,6.8,14,27
[6] = Homo sapiens, Cyproheptadine HCl μM r5-r13: 0,0.24,0.48,0.96,1.9,3.9,7.7,15,31
[7] = Homo sapiens, Loratadine μM r5-r13: 0,0.2,0.41,0.82,1.6,3.3,6.5,13,26
[8] = Homo sapiens, Thiethylperazine Maleate μM r5-r13: 0,0.2,0.39,0.78,1.6,3.1,6.3,13,25

Protocol: Drugs were added to the indicated concentration. […] The plate was then washed again with 0.1% Tween 20/PBS. An HRP-luminescent substrate was added to each well, and the light intensity of each well was measured using a plate luminometer.

CNCCC(Oc1ccc(C(F)(F)F)cc1)c1ccccc1 (racemic) [Fluoxetine HCl, (±)-N-methyl-3-phenyl-3-[((alpha),(alpha),(alpha)-trifluoro-p-tolyl)oxy]propylamine hydrochloride]
inhibition at 0.9 µM (Homo sapiens, read-out: percent inhibition of TNFα secretion, Fluoxetine HCl 0.9 μM, Cyproheptadine HCl: 0/0.24/0.48/0.96/1.9/3.9/7.7/15/31 μM): -1.1%
inhibition at 14 µM (Homo sapiens, read-out: percent inhibition of TNFα secretion, Fluoxetine HCl 14 μM, Cyproheptadine HCl: 0/0.24/0.48/0.96/1.9/3.9/7.7/15/31 μM): 16%
inhibition at 29 µM (Homo sapiens, read-out: percent inhibition of TNFα secretion, Fluoxetine HCl 29 μM, Cyproheptadine HCl: 0/0.24/0.48/0.96/1.9/3.9/7.7/15/31 μM): 41%
percent inhibition of TNFα secretion (Promethazine HCl 0 μM, Fluoxetine HCl μM r5-r13: 0,0.23,0.45,0.9,1.8,3.6,7.2,14,29, hydrochloride): 1.71% and −2.67% and 4.37% and 2.89% and −0.34% and −0.46% and −0.103% and 4.12%

Clc1ccc2c(c1)C(N1CCNCC1)=Nc1ccccc1O2 [Amoxapine, amoxapine]
inhibition at 0.2 µM [1]: 4.3%
inhibition at 0.2 µM [2]: 3.5%
inhibition at 0.2 µM [3]: 7.52%
inhibition at 0.2 µM [4]: 12%
inhibition at 0.4 µM [1]: 13%
inhibition at 0.4 µM [2]: 9.8%
inhibition at 0.4 µM [3]: 11.2%
inhibition at 0.4 µM [4]: 12%
inhibition at 0.8 µM [1]: 20%
inhibition at 0.8 µM [2]: 17%
inhibition at 0.8 µM [3]: 22.2%
inhibition at 0.8 µM [4]: 24%
inhibition at 13 µM [1]: 80%
inhibition at 13 µM [2]: 85%
inhibition at 13 µM [3]: 83.7%
inhibition at 13 µM [4]: 74%
inhibition at 25 µM [1]: 92%
inhibition at 25 µM [2]: 94%
inhibition at 25 µM [3]: 88.2%
inhibition at 25 µM [4]: 83%

CN(C)CCOC(c1ccccc1)c1ccc(Br)cc1 (stereo not drawn) [Bromodiphenhydramine HCl, bromodiphenhydramine]
inhibition at 14 µM (Homo sapiens, read-out: percent inhibition of TNFα secretion, Bromodiphenhydramine HCl 14 μM, Fluoxetine HCl μM: 0/0.23/0.45/0.9/1.8/3.6/7.2/14/29): 39%
inhibition at 27 µM (Homo sapiens, read-out: percent inhibition of TNFα secretion, Bromodiphenhydramine HCl 27 μM, Fluoxetine HCl μM: 0/0.23/0.45/0.9/1.8/3.6/7.2/14/29): 65.2%
percent inhibition of TNFα secretion (Nortryptyline HCl 0 μM (Bromodiphenhydramine HCl alone), Bromodiphenhydramine HCl μM: 0/0.21/0.43/0.85/1.7/3.4/6.8/14/27): −15

Clc1ccc(Cn2c(CN3CCCC3)nc3ccccc32)cc1 [Clemizole HCl, clemizole]
inhibition at 14 µM (Homo sapiens, read-out: percent inhibition (dose matrix), Table 96, Clemizole HCl 14 μM, Amoxapine 0-25 μM): -11.9%
inhibition at 28 µM (Homo sapiens, read-out: percent inhibition (dose matrix), Table 96, Clemizole HCl 28 μM, Amoxapine 0-25 μM): 0.658%
inhibition at 14 µM (Homo sapiens, read-out: percent inhibition (dose matrix), Table 97, Clemizole HCl 14 μM, Nortriptyline HCl 0-33 μM per row (c1)): 5.46%
inhibition at 28 µM (Homo sapiens, read-out: percent inhibition (dose matrix), Table 97, Clemizole HCl 28 μM, Nortriptyline HCl 0-33 μM per row (c1)): 19.5%
inhibition at 14 µM (Homo sapiens, read-out: percent inhibition (dose matrix), Table 98, Clemizole HCl 14 μM, Paroxetine HCl 0-27 μM per row (c1)): 0.085%
inhibition at 28 µM (Homo sapiens, read-out: percent inhibition (dose matrix), Table 98, Clemizole HCl 28 μM, Paroxetine HCl 0-27 μM per row (c1)): -7.43%
inhibition at 14 µM (Homo sapiens, read-out: percent inhibition (dose matrix), Table 103, Clemizole HCl 14 μM, Fluoxetine HCl 0-29 μM): 9.15%
inhibition at 28 µM (Homo sapiens, read-out: percent inhibition (dose matrix), Table 103, Clemizole HCl 28 μM, Fluoxetine HCl 0-29 μM): 9.27%
inhibition at 14 µM (Homo sapiens, read-out: percent inhibition (dose matrix), Table 107, Clemizole HCl 14 μM, Desipramine HCl 0-32 μM per row (c1)): 3.19%
inhibition at 28 µM (Homo sapiens, read-out: percent inhibition (dose matrix), Table 107, Clemizole HCl 28 μM, Desipramine HCl 0-32 μM per row (c1)): 14.9%
inhibition at 14 µM (Homo sapiens, read-out: percent inhibition (dose matrix), Table 108, Clemizole HCl 14 μM, Sertraline HCl 0-32 μM per row (c1)): 4.65%
inhibition at 28 µM (Homo sapiens, read-out: percent inhibition (dose matrix), Table 108, Clemizole HCl 28 μM, Sertraline HCl 0-32 μM per row (c1)): 16.9%
inhibition at 14 µM (Homo sapiens, read-out: percent inhibition of TNFα secretion, Clemizole HCl 14 μM, Amoxapine μM r5-r13: 0,0.2,0.4,0.8,1.6,3.2,6.4,13,25): 20%
inhibition at 14 µM (Homo sapiens, read-out: percent inhibition of TNFα secretion, Clemizole HCl 14 μM, Desipramine HCl: 0/0.25/0.5/1/2/4/8/16/32 μM): 26.4%
inhibition at 14 µM (Homo sapiens, read-out: percent inhibition of TNFα secretion, Clemizole HCl 14 μM, Fluoxetine HCl μM: 0/0.23/0.45/0.9/1.8/3.6/7.2/14/29): 26.1%
inhibition at 14 µM (Homo sapiens, read-out: percent inhibition of TNFα secretion, Clemizole HCl 14 μM, Paroxetine HCl μM r5-r13: 0,0.21,0.42,0.83,1.7,3.3,6.7,13,27): 22.4%
inhibition at 14 µM (Homo sapiens, read-out: percent inhibition of TNFα secretion, Clemizole HCl 14 μM, Sertraline HCl by grid row r5-r13: 0/0.25/0.49/0.99/2/4/7.9/16/32 μM): 24.5%
inhibition at 28 µM (Homo sapiens, read-out: percent inhibition of TNFα secretion, Clemizole HCl 28 μM, Amoxapine μM r5-r13: 0,0.2,0.4,0.8,1.6,3.2,6.4,13,25): 42.5%
inhibition at 28 µM (Homo sapiens, read-out: percent inhibition of TNFα secretion, Clemizole HCl 28 μM, Desipramine HCl: 0/0.25/0.5/1/2/4/8/16/32 μM): 41.4%
inhibition at 28 µM (Homo sapiens, read-out: percent inhibition of TNFα secretion, Clemizole HCl 28 μM, Fluoxetine HCl μM: 0/0.23/0.45/0.9/1.8/3.6/7.2/14/29): 34.1%
inhibition at 28 µM (Homo sapiens, read-out: percent inhibition of TNFα secretion, Clemizole HCl 28 μM, Paroxetine HCl μM r5-r13: 0,0.21,0.42,0.83,1.7,3.3,6.7,13,27): 42.1%
inhibition at 28 µM (Homo sapiens, read-out: percent inhibition of TNFα secretion, Clemizole HCl 28 μM, Sertraline HCl by grid row r5-r13: 0/0.25/0.49/0.99/2/4/7.9/16/32 μM): 43.3%
inhibition of TNFα secretion (prednisolone […], clemizole HCl r5-r13: 0,0.22,0.43,0.86,1.7,3.5,6.9,14,28 μM): 28

OCCN(CCO)c1nc(N2CCCCC2)c2nc(N(CCO)CCO)nc(N3CCCCC3)c2n1 [Dipyridamole]
inhibition at 0.3 µM [5]: 0.92%
inhibition at 0.3 µM [6]: -0.27%
inhibition at 0.3 µM [7]: 9.6%
inhibition at 0.3 µM [8]: 7%
inhibition at 19 µM [5]: 71%
inhibition at 19 µM [6]: 63%
inhibition at 19 µM [7]: 70%
inhibition at 19 µM [8]: 71%

CN(C)CCOC(C)(c1ccccc1)c1ccccn1 (stereo not drawn) [Doxylamine Succinate]
inhibition of TNFα secretion (prednisolone 1 μM, doxylamine succinate r5-r13: 0,0.2,0.4,0.8,1.6,3.2,6.4,13,26 μM): 34

CC(C)(C(=O)O)c1ccc(C(O)CCCN2CCC(C(O)(c3ccccc3)c3ccccc3)CC2)cc1 (stereo not drawn) [Fexofenadine HCl]
inhibition of TNFα secretion (prednisolone 0.5 μM, fexofenadine HCl r5-r13: 0,0.073,0.15,0.29,0.58,1.2,2.3,4.6,9.3 μM): 50
